What was measured:
Type in all cases: in vivo
[1] = tested on: Chenopodium album; assay: Test Example 4: herbicidal effect by soil treatment (symbol O); details: application herbicide amount 320 g/ha
Method in brief: (§1)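 Seeds were sown in sterilized diluvial soil, covered with about 1.5 cm of soil, and the soil surface was sprayed with a water-diluted emulsion of the compound at a predetermined rate. Plants grew in a greenhouse at 25° C. to 30° C.; effects were scored visually 3 weeks after application.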

[2] = tested on: Stellaria media; assay: Test Example 5: herbicidal effect by foliage application, plastic box (symbol P); details: 320 g/ha, 3 weeks after application
Method in brief: (§2)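 Visual herbicidal score, taken three weeks post-application, of seedlings sprayed on the foliage with water-diluted emulsion at a predetermined amount; plants were 14 days old, greenhouse-raised at 25° C. to 30° C.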

[3] = tested on: Chenopodium album; assay: Test Example 5: herbicidal effect by foliage application, plastic box (symbol O); details: 320 g/ha, 3 weeks after application
Method in brief: as §2

[4] = tested on: wheat; assay: Test Example 4: effect on crop by soil treatment (symbol e); details: application herbicide amount 320 g/ha
Method in brief: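 Steps: fill box with sterilized diluvial soil; sow seed spot-like; cover with ~1.5 cm soil; grow in greenhouse (25° C. to 30° C.).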

[5] = tested on: Abutilon theophrasti; assay: Test Example 5: herbicidal effect by foliage application, plastic box (symbol M); details: 320 g/ha, 3 weeks after application
Method in brief: as §2

[6] = tested on: Lolium multiflorum Lam.; assay: Test Example 4: herbicidal effect by soil treatment (symbol K); details: application herbicide amount 320 g/ha
Method in brief: as §1

[7] = tested on: Echinochloa crus-galli var. crus-galli; assay: Test Example 3: herbicidal effect by foliage application, Wagner pot (symbol H); details: application herbicide amount 320 g/ha
Method in brief: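 Scoring took place 3 weeks after application, using fixed criteria. Plants had been raised from seed for 14 days at 25 to 30 °C in submerged alluvial soil before a diluted emulsion of the test compound was sprayed uniformly on the leaves.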

[8] = tested on: Galium spurium; assay: Test Example 4: herbicidal effect by soil treatment (symbol Q); details: application herbicide amount 320 g/ha
Method in brief: as §1

[9] = tested on: Digitaria ciliaris; assay: Test Example 4: herbicidal effect by soil treatment (symbol F); details: application herbicide amount 320 g/ha
Method in brief: as §1

[10] = tested on: Setaria viridis; assay: Test Example 4: herbicidal effect by soil treatment (symbol G); details: application herbicide amount 320 g/ha
Method in brief: as §1

[11] = tested on: Digitaria ciliaris; assay: Test Example 5: herbicidal effect by foliage application, plastic box (symbol F); details: 320 g/ha, 3 weeks after application
Method in brief: as §2

[12] = tested on: Amaranthus retroflexus; assay: Test Example 4: herbicidal effect by soil treatment (symbol N); details: application herbicide amount 320 g/ha
Method in brief: as §1

[13] = tested on: Lolium multiflorum Lam.; assay: Test Example 5: herbicidal effect by foliage application, plastic box (symbol K); details: 320 g/ha, 3 weeks after application
Method in brief: as §2

[14] = tested on: beet; assay: Test Example 5: effect on crop by foliage application, plastic box (symbol f); details: 320 g/ha, 3 weeks after application
Method in brief: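 Greenhouse culture at 25° C. to 30° C. followed spot-like sowing into sterilized diluvial soil, with seed covered by roughly 1.5 cm of soil.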

[15] = tested on: Alopecurus myosuroides; assay: Test Example 5: herbicidal effect by foliage application, plastic box (symbol J); details: 320 g/ha, 3 weeks after application
Method in brief: as §2

[16] = tested on: directly sowed rice plant; assay: Test Example 3: effect on crop by foliage application, Wagner pot (symbol b); details: application herbicide amount 320 g/ha
Method in brief: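 Wagner pot (1/10000 are), alluvial soil, submerged 0.1–0.5 cm; sown E. crus-galli var. crus-galli, L. chinensis, C. difformis, rice; greenhouse 25–30 °C.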

[17] = tested on: transplanted rice plant; assay: Test Example 1: effect on crop, application before weed generation in submerged conditions (symbol a); details: application herbicide amount 320 g/ha
Method in brief: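 Alluvial soil pots flooded to 4 cm water, sown with Echinochloa oryzacola, Scirpus juncoides and Monochoria vaginalis, then transplanted with 2.5 leaf stage rice seedlings; pre-emergence application. Greenhouse 25° C. to 30° C.; scored 0–5 by herbicidal ratio 3 weeks after application.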

[18] = tested on: Veronica persica; assay: Test Example 4: herbicidal effect by soil treatment (symbol R); details: application herbicide amount 320 g/ha
Method in brief: as §1

Structure (SMILES)	herbicidal effect on H (Echinochloa crus-galli var. crus-galli), grade 0-5 [7]	effect on crop b (directly sowed rice plant), grade 0-5 [16]	Effect grade on crop, a: transplanted rice plant [17]	P: Stellaria media, herbicidal effect (criteria of Test Example 1) [2]	O: Chenopodium album, herbicidal effect (criteria of Test Example 1) [3]	Effect on crop grade, e: wheat [4]	M: Abutilon theophrasti, herbicidal effect (criteria of Test Example 1) [5]	Herbicidal effect grade, K: Lolium multiflorum Lam. [6]	Herbicidal effect grade, Q: Galium spurium [8]	Herbicidal effect grade, F: Digitaria ciliaris [9]	Herbicidal effect grade, G: Setaria viridis [10]	F: Digitaria ciliaris, herbicidal effect (criteria of Test Example 1) [11]	Herbicidal effect grade, N: Amaranthus retroflexus [12]	K: Lolium multiflorum Lam., herbicidal effect (criteria of Test Example 1) [13]	f: beet, effect on crop (criteria of Test Example 1) [14]	J: Alopecurus myosuroides, herbicidal effect (criteria of Test Example 1) [15]	further results
COC(=O)CON=C(C)CC1CC(O)=C(c2c(C)cc(C)cc2C)C1=O (stereo not shown) [1-023]	5 (Herbicidal ratio of 90% or more (almost completely withered))	4 (Herbicidal ratio of 70% or higher and lower than 90%)	1 (Herbicidal ratio of 5% or higher and lower than 20%)														O (Chenopodium album) herbicidal effect grade [1]: 0 (Herbicidal ratio of 5% or lower (almost no effect)); P: Stellaria media, herbicidal effect grade [2]: 0 (Herbicidal ratio of 5% or lower (almost no effect)); O: Chenopodium album, herbicidal effect grade [3]: 0 (Herbicidal ratio of 5% or lower (almost no effect)); e (wheat) effect on crop grade [4]: 0 (Herbicidal ratio of 5% or lower (almost no effect)); M: Abutilon theophrasti, herbicidal effect grade [5]: 0 (Herbicidal ratio of 5% or lower (almost no effect)); K (Lolium multiflorum Lam.) herbicidal effect grade [6]: 3 (Herbicidal ratio of 40% or higher and lower than 70%); Q (Galium spurium) herbicidal effect grade [8]: 0 (Herbicidal ratio of 5% or lower (almost no effect)); F (Digitaria ciliaris) herbicidal effect grade [9]: 4 (Herbicidal ratio of 70% or higher and lower than 90%); G (Setaria viridis) herbicidal effect grade [10]: 3 (Herbicidal ratio of 40% or higher and lower than 70%); F: Digitaria ciliaris, herbicidal effect grade [11]: 2 (Herbicidal ratio of 20% or higher and lower than 40%); N (Amaranthus retroflexus) herbicidal effect grade [12]: 0 (Herbicidal ratio of 5% or lower (almost no effect)); K: Lolium multiflorum Lam., herbicidal effect grade [13]: 4 (Herbicidal ratio of 70% or higher and lower than 90%); f: beet, effect on crop grade [14]: 0 (Herbicidal ratio of 5% or lower (almost no effect)); J: Alopecurus myosuroides, herbicidal effect grade [15]: 4 (Herbicidal ratio of 70% or higher and lower than 90%)
CC(=O)CC1CC(O)=C(c2c(C)cc(Br)cc2C)C1=O (stereo not shown) [7-002]	5 (Herbicidal ratio of 90% or more (almost completely withered))	5 (Herbicidal ratio of 90% or more (almost completely withered))	2 (Herbicidal ratio of 20% or higher and lower than 40%)	0 (Herbicidal ratio of 5% or lower (almost no effect))	0 (Herbicidal ratio of 5% or lower (almost no effect))	0 (Herbicidal ratio of 5% or lower (almost no effect))	0 (Herbicidal ratio of 5% or lower (almost no effect))	5 (Herbicidal ratio of 90% or more (almost completely withered))	0 (Herbicidal ratio of 5% or lower (almost no effect))	5 (Herbicidal ratio of 90% or more (almost completely withered))	4 (Herbicidal ratio of 70% or higher and lower than 90%)	5 (Herbicidal ratio of 90% or more (almost completely withered))	0 (Herbicidal ratio of 5% or lower (almost no effect))	5 (Herbicidal ratio of 90% or more (almost completely withered))	0 (Herbicidal ratio of 5% or lower (almost no effect))	4 (Herbicidal ratio of 70% or higher and lower than 90%)	Herbicidal effect grade, O: Chenopodium album [1]: 0 (Herbicidal ratio of 5% or lower (almost no effect))
CON=C(C)CC1CC(OC(=O)SC(C)(C)C)=C(c2c(C)cc(-c3ccc(Cl)cc3)cc2C)C1=O (stereo not shown) [6-082]	5 (Herbicidal ratio of 90% or more (almost completely withered))	5 (Herbicidal ratio of 90% or more (almost completely withered))	5 (Herbicidal ratio of 90% or more (almost completely withered))	1 (Herbicidal ratio of 5% or higher and lower than 20%)			4 (Herbicidal ratio of 70% or higher and lower than 90%)					5 (Herbicidal ratio of 90% or more (almost completely withered))		5 (Herbicidal ratio of 90% or more (almost completely withered))	0 (Herbicidal ratio of 5% or lower (almost no effect))	5 (Herbicidal ratio of 90% or more (almost completely withered))	O: Chenopodium album, herbicidal effect grade [1]: 0 (Herbicidal ratio of 5% or lower (almost no effect)); e: wheat, effect on crop grade [4]: 0 (Herbicidal ratio of 5% or lower (almost no effect)); K: Lolium multiflorum Lam., herbicidal effect grade [6]: 5 (Herbicidal ratio of 90% or more (almost completely withered)); Q: Galium spurium, herbicidal effect grade [8]: 0 (Herbicidal ratio of 5% or lower (almost no effect)); F: Digitaria ciliaris, herbicidal effect grade [9]: 5 (Herbicidal ratio of 90% or more (almost completely withered)); R: Veronica persica, herbicidal effect grade [18]: 3 (Herbicidal ratio of 40% or higher and lower than 70%); G: Setaria viridis, herbicidal effect grade [10]: 5 (Herbicidal ratio of 90% or more (almost completely withered))
CC#Cc1cc(C)c(C2=C(O)CC(CC(C)=O)C2=O)c(C)c1 (stereo not shown) [7-010]	5 (Herbicidal ratio of 90% or more (almost completely withered))	5 (Herbicidal ratio of 90% or more (almost completely withered))	5 (Herbicidal ratio of 90% or more (almost completely withered))	0 (Herbicidal ratio of 5% or lower (almost no effect))	2 (Herbicidal ratio of 20% or higher and lower than 40%)	4 (Herbicidal ratio of 70% or higher and lower than 90%)	3 (Herbicidal ratio of 40% or higher and lower than 70%)	5 (Herbicidal ratio of 90% or more (almost completely withered))	0 (Herbicidal ratio of 5% or lower (almost no effect))	5 (Herbicidal ratio of 90% or more (almost completely withered))	5 (Herbicidal ratio of 90% or more (almost completely withered))	5 (Herbicidal ratio of 90% or more (almost completely withered))	0 (Herbicidal ratio of 5% or lower (almost no effect))	5 (Herbicidal ratio of 90% or more (almost completely withered))	0 (Herbicidal ratio of 5% or lower (almost no effect))	5 (Herbicidal ratio of 90% or more (almost completely withered))	Herbicidal effect grade, R: Veronica persica [18]: 3 (Herbicidal ratio of 40% or higher and lower than 70%)

Reference: US11000033B2, “Ketone or oxime compound, and herbicide” (NISSAN CHEMICAL CORPORATION, priority 2014, dated 2021)
